In patent publication US20130178463A1, “ENHANCED TRANSBUCCAL DRUG DELIVERY SYSTEM AND COMPOSITIONS” (Rutgers, The State University of New Jersey, priority 2010, published 2013):
Counter-ions that a name gives are not always drawn. Marks after values point to notes of the source that are not given here. One block for each compound: values may come before it.

How the values were obtained:
[1] = in words; drug description; cited from earlier work
[2] = Physicochemical properties stated in the description; conditions: in words; reason for preparing solutions in PG only
[3] = In vitro transdermal permeation of LHCl, NHT and DHCl gels (Franz diffusion cells); conditions: for enhancement effect on transdermal delivery of DHCl / enhancement effect on transdermal delivery of LHCl / enhancement effect on transdermal delivery of NHT: in words, 1 hr. enhancer pretreatment, compared to control; for Flux / Q8: Transdermal
[4] = In vitro transbuccal permeation of LHCl, NHT and DHCl gels (Franz diffusion cells); conditions: for Q8 / Flux: Transbuccal
[5] = In vitro transbuccal permeation of 0.5% ODAN.HCl gel with iontophoresis and/or chemical enhancers (Franz diffusion cells)
[6] = Histological study of buccal tissue (H&E, light microscopy); parameters: species or system porcine; conditions: after passive permeation (FIG. 6); light micrographs 40×
[7] = in words, 1 hr. enhancer pretreatment, compared to control
[8] = iontophoresis 0.3 mA for 8 h, listed as nicotine hydrogen tartrate, tartrate
[9] = iontophoresis 0.3 mA for 8 h, tartrate
[10] = Control (untreated passive), 8 h (Tables 19-21)
[11] = iontophoresis 0.3 mA for 8 h (Tables 19-21)
[12] = Stage II after 8 h iontophoresis 0.2 mA

SMILES: COc1ccc([C@@H]2Sc3ccccc3N(CCN(C)C)C(=O)[C@@H]2OC(C)=O)cc1 [Diltiazem HCl, 1,5-Benzothiazepin-4(5H) one, 3-(acetyloxy)-5-[2-(dimethylamino)ethyl]-2,3-dihyro-2-(4-methoxyphenyl)-, monohydrochloride, (+)-cis-]
solubility [1]: soluble in water, methanol, and chloroform

SMILES: CCCCCCCCCCCCOC(=O)C(C)N(C)C (stereo not shown) [DDAIP, dodecyl 2-(N,N dimethylamino) propionate]
aqueous solubility [2]: low aqueous solubilities | enhancement effect on transdermal delivery of DHCl [3]: had enhancement effect | enhancement effect on transdermal delivery of LHCl [3]: had enhancement effect | enhancement effect on transdermal delivery of NHT [3]: no enhancement effect | enhancement effect on transbuccal delivery of DHCl [4, 7]: had enhancement effect | enhancement effect on transbuccal delivery of LHCl [4, 7]: had enhancement effect | effectiveness in enhancing ODAN.HCl permeability across porcine buccal tissues ([5]; in words, summary of Example 6): only marginally effective

enhancement effect on transdermal delivery of NHT [3]: no enhancement effect | enhancement effect on transbuccal delivery of NHT [4, 7]: no enhancement effect
SMILES: CCCCCCCCCCCCN1CCCCCC1=O [Azone, 1-Dodecylazacycloheptan-2-one]

SMILES: CCCCCCCCCCCCOC(=O)C(C)N(C)C.Cl (stereo not shown) [DDAIP.HCl, dodecyl-2-N,N-dimethylaminopropionate hydrochloride]
effect on viability of EpiOral tissue compared to water (EpiOral™ tissue): did not reduce the viability | enhancement effect on transdermal delivery of DHCl [3]: no enhancement effect | enhancement effect on transdermal delivery of LHCl [3]: no enhancement effect | enhancement effect on transdermal delivery of NHT [3]: no enhancement effect

SMILES: CN1CCCC1c1cccnc1.O=C(O)C(O)C(O)C(=O)O (stereo not shown) [Nicotine Hydrogen Tartrate, Nicotine hydrogen tartrate]
solubility [1]: soluble in water | Flux ([3]; Control (untreated passive), 8 h, […] LHCl, 2% NHT or 2% DHCl gel): 1.3 ± 1.9 μg/cm^2*h | Q8 ([3]; Control (untreated passive), 8 h, tartrate): 9.9 ± 14.6 μg/cm^2 | Flux ([3]; iontophoresis 0.1 mA for 8 h): 56.1 ± 11.4^b μg/cm^2*h | Q8 ([3]; iontophoresis 0.1 mA for 8 h): 433.2 ± 85.4^b μg/cm^2 | Flux [3, 8]: 138.4 ± 72.3^c μg/cm^2*h | Q8 [3, 8]: 1326.6 ± 186.2^c μg/cm^2 | Flux [3, 9]: 138.4 ± 72.3^b μg/cm^2*h | Q8 [3, 9]: 1326.6 ± 186.2^b μg/cm^2 | Q8 [4, 10]: 6.9 ± 2.6^ μg/cm^2 | Flux ([4]; Control (untreated passive), 8 h, […] LHCl, 2% NHT or 2% DHCl gel, listed as nicotine hydrogen tartrate, tartrate): 0.9 ± 0.4 μg/cm^2*h | Flux ([4]; iontophoresis 0.1 mA for 8 h): 17.6 ± 6.9^b μg/cm^2*h | Q8 [4, 11]: 629.5 ± 276.8^b μg/cm^2 | Flux [4, 8]: 81.7 ± 35.9^c μg/cm^2*h | Flux [4, 9]: 81.7 ± 35.9^b μg/cm^2*h

SMILES: CCN(CC)CC(=O)Nc1c(C)cccc1C [Lidocaine HCl, 2-(Diethylamino)-2′,6′-acetoxylidide mono-hydrochloride, monohydrate]
Q8 [4, 10]: 345.6 ± 74.3^ μg/cm^2 | Flux ([4]; Control (untreated passive), 8 h, […] LHCl, 2% NHT or 2% DHCl gel, listed as lidocaine HCl, mono-hydrochloride, monohydrate): 44.7 ± 9.6 μg/cm^2*h | Flux ([4]; iontophoresis 0.1 mA for 8 h): 137.1 ± 13.1^b μg/cm^2*h | Q8 [4, 11]: 1910.2 ± 454.7^b μg/cm^2 | Flux ([4]; iontophoresis 0.3 mA for 8 h, listed as lidocaine HCl, mono-hydrochloride, monohydrate): 241.7 ± 60.5^c μg/cm^2*h | Flux ([4]; iontophoresis 0.3 mA for 8 h, mono-hydrochloride, monohydrate): 241.7 ± 60.5^b μg/cm^2*h

aqueous solubility [2]: low aqueous solubilities | enhancement effect on transdermal delivery of LHCl [3]: enhanced | enhancement effect on transdermal delivery of NHT [3]: no enhancement effect | enhancement effect on transbuccal delivery of LHCl [4, 7]: enhanced | enhancement effect on transbuccal delivery of NHT [4, 7]: no enhancement effect
SMILES: CS(C)=NC(=O)c1ccc(Br)cc1 [Br-iminosulfurane]

morphology of buccal tissue compared to untreated [6]: no major morphological changes | Q8 ([5]; 0.5% ODAN.HCl gel, Stage I, Control (passive)): 25.5 ± 5.1 µg/cm² | Flux ([5]; 0.5% ODAN.HCl gel, Stage I, iontophoresis 0.1 mA): 10.6 ± 4.5^b μg/cm^2/h | Flux ([5]; 0.5% ODAN.HCl gel, Stage I, iontophoresis 0.2 mA): 16.5 ± 6.5^b μg/cm^2/h | Flux ([5]; 0.5% ODAN.HCl gel, Stage I, iontophoresis 0.3 mA): 22.8 ± 4.6^b μg/cm^2/h | ER ([5]; Stage I, Control (reference)): 1 | Q8 ([5]; Stage I, iontophoresis 0.1 mA): 83.3 ± 33.5 µg/cm² | ER ([5]; Stage I, iontophoresis 0.1 mA, flux vs control): 3.3 | Q8 ([5]; Stage I, iontophoresis 0.2 mA): 133 ± 50.1 µg/cm² | ER ([5]; Stage I, iontophoresis 0.2 mA, flux vs control): 5.2 | Q8 ([5]; Stage I, iontophoresis 0.3 mA): 190 ± 42.7 µg/cm² | ER ([5]; Stage I, iontophoresis 0.3 mA, flux vs control): 7.1 | Flux ([5]; Stage II (8-24 h, passive) after 8 h iontophoresis 0.1 mA): 13.7 ± 4.3^b μg/cm^2/h | Q24 ([5]; Stage II after 8 h iontophoresis 0.1 mA): 297 ± 90.1 µg/cm² | ER ([5]; Stage II after 8 h iontophoresis 0.1 mA, flux vs control): 2.8 | Flux [5, 12]: 12.7 ± 5.3^b μg/cm^2/h | Q24 [5, 12]: 337 ± 130 µg/cm² | ER ([5]; Stage II after 8 h iontophoresis 0.2 mA, flux vs control): 2.6 | Q24 ([5]; Stage II after 8 h iontophoresis 0.3 mA): 380 ± 68.1 µg/cm² | ER ([5]; Stage II after 8 h iontophoresis 0.3 mA, flux vs control): 2.4 | Flux ([5]; Stage II after 8 h iontophoresis 0.3 mA, listed as ODAN.HCl, monohydrochloride, dihydrate): 11.9 μg/cm^2/h | Flux ([5]; Stage II after 8 h iontophoresis 0.3 mA, monohydrochloride, dihydrate): 11.9 ± 2.3^b μg/cm^2/h | Q24 ([5]; Stage II, Control (passive)): 105 ± 22.8 µg/cm² | ER ([5]; Stage II, Control (reference)): 1
SMILES: Cc1nccn1CC1CCc2c(c3ccccc3n2C)C1=O (racemic) [ODAN•HCl, (±) 1,2,3,9-tetrahydro-9-methyl-3-[(2-methyl-1H-imidazol-1-yl)methyl]-4H-carbazol-4-one, monohydrochloride, dihydrate]
